Literature values in PMC6574176 (Biomaterials, 2019).

Conditions: rapidly bio-eliminated

Question: For `CC1(C)C(/C=C/C=C/C=C/C=C2\N(CCCCS(=O)(=O)O)c3ccc4ccccc4c3C2(C)C)=[N+](CCCCS(=O)(=O)[O-])c2ccc3ccccc3c21` [free ICG, Indocyanine Green], which “t1/2 of free ICG” value is on record?
Answer: 2 to 4 min
